Patent US20070049564A1 (Wyeth, priority 2005, published 2007)
≈ marks a conversion by molar mass, not a printed value. Like-named read-outs stand apart in the source and are kept apart here.

Tests used:
[1] = system: E. faecalis GC 4555; assay: MIC, broth microdilution; settings: Enterococcus faecalis
[2] = system: E. faecium GC 2243; assay: MIC, broth microdilution; settings: Enterococcus faecium
[3] = system: S. epidermidis GC 4935; assay: MIC, broth microdilution; settings: Staphylococcus epidermidis
[4] = system: S. aureus GC 2216; assay: MIC, broth microdilution; settings: Staphylococcus aureus
[5] = system: Staph.; assay: Range of MIC for Staph. strains, including MRSA; settings: Staphylococcus aureus
Experimental: (§1) Antimicrobial susceptibility testing. The in vitro activities of the antibiotics are determined by the broth microdilution method as recommended by the National Committee for Clinical Laboratory Standards (NCCLS) (1). Mueller-Hinton II broth (MHBII)(BBL Cockeysville, Md.) is the medium employed in the testing procedures. Microtiter plates containing serial dilutions of each antimicrobial agent are inoculated with each organism to yield the appropriate density (10^5 CFU/ml) in a 100 μl final volume. The plates are incubated for 18-22 hours at 35° C. in ambient air.
Representative compounds were first incubated in mouse serum for an hour prior to the in vitro testing against a panel of selected gram-positive and gram-negative bacteria strains. All compounds were also pre-incubated in water for an hour prior to testing as control. Representative compounds of Formula I were incubated in human serum prior to MIC determination.

[6] = system: E. coli GC 2231; assay: MIC, broth microdilution; settings: Escherichia coli
Experimental: as §1
Representative compounds were first incubated in mouse serum for an hour prior to the in vitro testing against a panel of selected gram-positive and gram-negative bacteria strains. All compounds were also pre-incubated in water for an hour prior to testing as control.

[7] = system: E. coli; assay: Range of MIC for E. coli strains; settings: Escherichia coli
[8] = system: E. faecalis GC 2242; assay: MIC, broth microdilution; settings: Enterococcus faecalis
[9] = system: S. pneumoniae* GC 4465; assay: MIC, broth microdilution; settings: Streptococcus pneumoniae
[10] = system: E. coli GC 2232; assay: MIC, broth microdilution; settings: Escherichia coli
[11] = system: E. faecalis GC 2265; assay: MIC, broth microdilution; settings: Enterococcus faecalis
[12] = system: c. albicans GC 3066; assay: MIC, broth microdilution
[13] = system: Staph. aureus Smith; assay: In vivo activity (oral, iv; ED50) against Staph. aureus Smith in mice
Experimental: Representative examples of compounds of Formula I were tested for the oral efficacy using S. aureus Smith in mice.

[14] = system: S. aureus GC 1131; assay: MIC, broth microdilution; settings: Staphylococcus aureus
[15] = system: E. coli GC 2236; assay: MIC, broth microdilution; settings: Escherichia coli
[16] = system: P. aeruginosa GC 2214; assay: MIC, broth microdilution; settings: Pseudomonas aeruginosa
[17] = system: E. coli GC 2272; assay: MIC, broth microdilution; settings: Escherichia coli
[18] = system: E. faecalis GC 2267; assay: MIC, broth microdilution; settings: Enterococcus faecalis
[19] = system: S. aureus GC 4536; assay: MIC, broth microdilution; settings: Staphylococcus aureus
[20] = system: S. pneumoniae+ GC 4465; assay: MIC, broth microdilution; settings: Streptococcus pneumoniae
[21] = read-out: MINIMAL INHIBITORY CONCENTRATION MIC, pre-incubated in Human Serum
[22] = read-out: MINIMAL INHIBITORY CONCENTRATION MIC, pre-incubated in Mouse Serum
[23] = read-out: MINIMAL INHIBITORY CONCENTRATION MIC, pre-incubated in Water

## CN(C)c1cc(NC(=O)CN(C(=O)OCOC(=O)C2CCCC2)C(C)(C)C)c(O)c2c1C[C@H]1C[C@H]3[C@H](N(C)C)C(O)=C(C(N)=O)C(=O)[C@@]3(O)C(O)=C1C2=O [Example 46, ({[(2-{[(5aR,6aS,7S,10aS)-9-(aminocarbonyl)-4,7-bis(dimethylamino)-1,8,10a,11-tetrahydroxy-10,12-dioxo-5,5a,6,6a,7,10,10a,12-octahydrotetracen-2-yl]amino}-2-oxoethyl)(tert-butyl)amino]carbonyl}oxy)methyl cyclopentanecarboxylate]
[1]; GC4555, read-out: MINIMAL INHIBITORY CONCENTRATION MIC, pre-incubated in Human Serum
  MIC: 0.5 µg/mL (≈ 0.662 µM)
[1]; GC4555, read-out: MINIMAL INHIBITORY CONCENTRATION MIC, pre-incubated in Mouse Serum
  MIC: 0.5 µg/mL (≈ 0.662 µM)
[1]; GC4555, read-out: MINIMAL INHIBITORY CONCENTRATION MIC, pre-incubated in Water
  MIC: 2 µg/mL (≈ 2.65 µM)
[2]; GC2243, read-out: MINIMAL INHIBITORY CONCENTRATION MIC, pre-incubated in Human Serum
  MIC: 0.25 µg/mL (≈ 0.331 µM)
[2]; GC2243, read-out: MINIMAL INHIBITORY CONCENTRATION MIC, pre-incubated in Mouse Serum
  MIC: 0.25 µg/mL (≈ 0.331 µM)
[2]; GC2243, read-out: MINIMAL INHIBITORY CONCENTRATION MIC, pre-incubated in Water
  MIC: 0.5 µg/mL (≈ 0.662 µM)
[3]; GC4935, read-out: MINIMAL INHIBITORY CONCENTRATION MIC, pre-incubated in Human Serum
  MIC: 1 µg/mL (≈ 1.32 µM)
[3]; GC4935, read-out: MINIMAL INHIBITORY CONCENTRATION MIC, pre-incubated in Mouse Serum
  MIC: 1 µg/mL (≈ 1.32 µM)
[3]; GC4935, read-out: MINIMAL INHIBITORY CONCENTRATION MIC, pre-incubated in Water
  MIC: 2 µg/mL (≈ 2.65 µM)
[4]; GC2216, read-out: MINIMAL INHIBITORY CONCENTRATION MIC, pre-incubated in Human Serum
  MIC: 0.5 µg/mL (≈ 0.662 µM)
[4]; GC2216, read-out: MINIMAL INHIBITORY CONCENTRATION MIC, pre-incubated in Mouse Serum
  MIC: 0.5 µg/mL (≈ 0.662 µM)
[4]; GC2216, read-out: MINIMAL INHIBITORY CONCENTRATION MIC, pre-incubated in Water
  MIC: 1 µg/mL (≈ 1.32 µM)
[5]; MRSA, read-out: Range of MIC, Staph (Mouse Serum)
  MIC: 0.25 to 1 µg/mL (≈ 0.331 to 1.32 µM)
[5]; MRSA, read-out: Range of MIC, Staph (Water)
  MIC: 0.25 to 2 µg/mL (≈ 0.331 to 2.65 µM)
[5]; read-out: Minimum inhibitory concentration (MIC), Staph (Human Serum)
  MIC: 0.25 to 1 µg/mL (≈ 0.331 to 1.32 µM)
[5]; read-out: Minimum inhibitory concentration (MIC), Staph (Water)
  MIC: 0.25 to 2 µg/mL (≈ 0.331 to 2.65 µM)
[6]; GC2231, read-out: MINIMAL INHIBITORY CONCENTRATION MIC, pre-incubated in Human Serum
  MIC: 4 µg/mL (≈ 5.29 µM)
[6]; GC2231, read-out: MINIMAL INHIBITORY CONCENTRATION MIC, pre-incubated in Mouse Serum
  MIC: 0.5 µg/mL (≈ 0.662 µM)
[6]; GC2231, read-out: MINIMAL INHIBITORY CONCENTRATION MIC, pre-incubated in Water
  MIC: 64 µg/mL (≈ 84.7 µM)
[7]; 20 h, read-out: Range of MIC, E. coli (Mouse Serum)
  MIC: 0.5 to 2 µg/mL (≈ 0.662 to 2.65 µM)
[7]; read-out: Minimum inhibitory concentration (MIC), E. coli (Human Serum)
  MIC: 4 to 16 µg/mL (≈ 5.29 to 21.2 µM)
[8]; GC2242, read-out: MINIMAL INHIBITORY CONCENTRATION MIC, pre-incubated in Human Serum
  MIC: 1 µg/mL (≈ 1.32 µM)
[8]; GC2242, read-out: MINIMAL INHIBITORY CONCENTRATION MIC, pre-incubated in Mouse Serum
  MIC: 0.5 µg/mL (≈ 0.662 µM)
[8]; GC2242, read-out: MINIMAL INHIBITORY CONCENTRATION MIC, pre-incubated in Water
  MIC: 1 µg/mL (≈ 1.32 µM)
[9]; [21]
  MIC: 0.12 µg/mL (≈ 0.159 µM)
[9]; [22]
  MIC: 0.12 µg/mL (≈ 0.159 µM)
[9]; [23]
  MIC: 0.12 µg/mL (≈ 0.159 µM)
[10]; GC2232, read-out: MINIMAL INHIBITORY CONCENTRATION MIC, pre-incubated in Human Serum
  MIC: 4 µg/mL (≈ 5.29 µM)
[10]; GC2232, read-out: MINIMAL INHIBITORY CONCENTRATION MIC, pre-incubated in Mouse Serum
  MIC: 0.5 µg/mL (≈ 0.662 µM)
[10]; GC2232, read-out: MINIMAL INHIBITORY CONCENTRATION MIC, pre-incubated in Water
  MIC: 64 µg/mL (≈ 84.7 µM)
[11]; GC2265, read-out: MINIMAL INHIBITORY CONCENTRATION MIC, pre-incubated in Human Serum
  MIC: 1 µg/mL (≈ 1.32 µM)
[11]; GC2265, read-out: MINIMAL INHIBITORY CONCENTRATION MIC, pre-incubated in Mouse Serum
  MIC: 0.5 µg/mL (≈ 0.662 µM)
[11]; GC2265, read-out: MINIMAL INHIBITORY CONCENTRATION MIC, pre-incubated in Water
  MIC: 2 µg/mL (≈ 2.65 µM)
[12]; Candida albicans, GC3066, read-out: MINIMAL INHIBITORY CONCENTRATION MIC
  MIC: > 64 µg/mL
[12]; pre-incubated in Human Serum
  MINIMAL INHIBITORY CONCENTRATION MIC: >64 UG/ML
[12]; pre-incubated in Mouse Serum
  MINIMAL INHIBITORY CONCENTRATION MIC: >64 UG/ML
[13]; Staphylococcus aureus, in Mus musculus, po, read-out: ED50 Staph Smith SOD
  ED50: 8.4 mg/kg
[13]; iv, read-out: ED50 Staph Smith SIV
  ED50: 0.83 mg/kg
[14]; GC1131, read-out: MINIMAL INHIBITORY CONCENTRATION MIC, pre-incubated in Human Serum
  MIC: 0.5 µg/mL (≈ 0.662 µM)
[14]; GC1131, read-out: MINIMAL INHIBITORY CONCENTRATION MIC, pre-incubated in Mouse Serum
  MIC: 0.5 µg/mL (≈ 0.662 µM)
[14]; GC1131, read-out: MINIMAL INHIBITORY CONCENTRATION MIC, pre-incubated in Water
  MIC: 0.5 µg/mL (≈ 0.662 µM)
[15]; GC2236, read-out: MINIMAL INHIBITORY CONCENTRATION MIC, pre-incubated in Human Serum
  MIC: 4 µg/mL (≈ 5.29 µM)
[15]; GC2236, read-out: MINIMAL INHIBITORY CONCENTRATION MIC, pre-incubated in Mouse Serum
  MIC: 0.5 µg/mL (≈ 0.662 µM)
[15]; GC2236, read-out: MINIMAL INHIBITORY CONCENTRATION MIC, pre-incubated in Water
  MIC: 64 µg/mL (≈ 84.7 µM)
[16]; GC2214, read-out: MINIMAL INHIBITORY CONCENTRATION MIC, pre-incubated in Human Serum
  MIC: > 64 µg/mL
[16]; GC2214, read-out: MINIMAL INHIBITORY CONCENTRATION MIC, pre-incubated in Mouse Serum
  MIC: 16 µg/mL (≈ 21.2 µM)
[16]; GC2214, read-out: MINIMAL INHIBITORY CONCENTRATION MIC, pre-incubated in Water
  MIC: > 64 µg/mL
[17]; GC2272, read-out: MINIMAL INHIBITORY CONCENTRATION MIC, pre-incubated in Human Serum
  MIC: 4 µg/mL (≈ 5.29 µM)
[17]; GC2272, read-out: MINIMAL INHIBITORY CONCENTRATION MIC, pre-incubated in Mouse Serum
  MIC: 1 µg/mL (≈ 1.32 µM)
[17]; GC2272, read-out: MINIMAL INHIBITORY CONCENTRATION MIC, pre-incubated in Water
  MIC: 64 µg/mL (≈ 84.7 µM)
[18]; GC2267, read-out: MINIMAL INHIBITORY CONCENTRATION MIC, pre-incubated in Human Serum
  MIC: 1 µg/mL (≈ 1.32 µM)
[18]; GC2267, read-out: MINIMAL INHIBITORY CONCENTRATION MIC, pre-incubated in Mouse Serum
  MIC: 0.5 µg/mL (≈ 0.662 µM)
[18]; GC2267, read-out: MINIMAL INHIBITORY CONCENTRATION MIC, pre-incubated in Water
  MIC: 2 µg/mL (≈ 2.65 µM)
[19]; GC4536, read-out: MINIMAL INHIBITORY CONCENTRATION MIC, pre-incubated in Human Serum
  MIC: 0.5 µg/mL (≈ 0.662 µM)
[19]; GC4536, read-out: MINIMAL INHIBITORY CONCENTRATION MIC, pre-incubated in Mouse Serum
  MIC: 0.5 µg/mL (≈ 0.662 µM)
[19]; GC4536, read-out: MINIMAL INHIBITORY CONCENTRATION MIC, pre-incubated in Water
  MIC: 0.5 µg/mL (≈ 0.662 µM)
[20]; [21]
  MIC: 1 µg/mL (≈ 1.32 µM)
[20]; [22]
  MIC: 1 µg/mL (≈ 1.32 µM)
[20]; [23]
  MIC: 1 µg/mL (≈ 1.32 µM)
